Source: patent publication EP4818154A1, “EP4 AGONIST” (ONO Pharmaceutical Co., Ltd., priority 2023, dated 2025)

Columns and labels:
[1] = tested on: rat circulatory organ (blood pressure and heart rate); experiment: Rat po circulatory organ evaluation test (blood pressure and heart rate); details: for safety margin (dose basis): rat no observed effect level compared with the effective amount in the mouse model of DSS-induced colitis; for no observed effect level on the rat circulatory organ (blood pressure and heart rate): single oral administration, unrestrained, awake rats
Text: Regarding an action on the rat circulatory organ under unrestrained conditions and awakening, the test substance was orally administered once to Crl:CD (SD) male rats (4 animals/group) implanted with a telemetry transmitter (HD-S10, Data Sciences International, Inc.) or catheterized in the left carotid artery, and blood pressure (systolic, diastolic, and mean blood pressure) and heart rate were continuously measured.

[2] = tested on: monkey circulatory organ (blood pressure and heart rate); experiment: Monkey po telemetry test (blood pressure and heart rate); details: for safety margin (dose basis): monkey no observed effect level compared with the effective amount in the mouse model of DSS-induced colitis; for no observed effect level on the monkey circulatory organ (blood pressure and heart rate): single oral administration, unrestrained, awake cynomolgus monkeys
Procedure: Regarding an action on the monkey circulatory organ under unrestrained conditions and awakening, the test substance was orally administered once to male cynomolgus monkeys (2 animals/dose) implanted with a telemetry transmitter (M11, Data Sciences International, Inc.), and blood pressure (systolic, diastolic, and mean blood pressure) and heart rate were continuously measured. The evaluation time point was set to before administration, 0.5, 1, 2, 4, 8, 10, 12, 16, or 24 hours after administration, and the average value for 1 minute at the evaluation time point was analyzed.

DSS colitis mouse model = experiment: Dextran sodium sulfate (DSS)-induced ulcerative colitis mouse model; format: in vivo, C57BL/6 mice; details: oral once a day Day 0 to Day 6, 2% DSS drinking water
Procedure: Adult C57BL/6 mice were used in this assay. The day on which 2% DSS drinking water started was defined as Day 0. A DSS solution was placed in a transparent plastic water bottle, and the mice were allowed to freely drink from Day 0 to Day 7 via a metal nozzle to induce ulcerative colitis. The test substance was orally administered once a day at a dose of 10 mL/kg for 7 days from Day 0 to Day 6. Stool conditions were observed every day from Day 0 to Day 7, and a disease activity index (DAI) was evaluated according to a reference score (Diarrhea score 0: normal stool, 1: loose stool, 2: diarrhea stool, 3: watery stool. Bloody stool score 0: normal stool, 1: brown mild bloody stool, 2: reddish color in stool, 3: melena); DAI score = diarrhea score + bloody stool score […].
The compounds of the present disclosure were tested in this assay. Efficacy in this model is evidenced by a decrease in the DAI score when compared to that of vehicle-treated animals (control group).

Row | SMILES | safety margin (dose basis) [1] [times] | no observed effect level on the rat circulatory organ (blood pressure and heart rate) [1] [mg/kg] | safety margin (dose basis) [2] [times] | no observed effect level on the monkey circulatory organ (blood pressure and heart rate) [2] [mg/kg] | suppression of the control group score (DAI score) (DSS colitis mouse model; 0.3 mpk) [%] | suppression of the control group score (DAI score) (DSS colitis mouse model; 3 mpk) [%] | suppression of the control group score (DAI score) (DSS colitis mouse model; 1 mpk) [%]
1 | CN(CCCCC[C@H](O)/C=C/[C@H]1CCC(=O)N1CCSc1nc(C(=O)NCCS(=O)(=O)O)cs1)c1ccccc1 [2-({[2-({2-[(2R)-2-{(1E,3S)-3-Hydroxy-8-[methyl(phenyl)amino]-1-octen-1-yl}-5-oxo-1-pyrrolidinyl]ethyl}thio)-1,3-thiazol-4-yl]carbonyl}amino)ethanesulfonic acid] | 100 | 30 | 10 | 3 | 50 | – | –
2 | O=C(CCCSCCN1C(=O)CC[C@@H]1/C=C/[C@@H](O)Cc1cccc(NC(=O)c2ccccc2)c1)NCCS(=O)(=O)O [2-{[4-({2-[(2R)-2-{(1E,3S)-4-[3-(Benzoylamino)phenyl]-3-hydroxy-1-buten-1-yl}-5-oxo-1-pyrrolidinyl]ethyl}thio)butanoyl]amino}ethanesulfonic acid] | 10 | 30 | – | – | – | 50 | –
3 | O=C(O)c1csc(SCCN2C(=O)CC[C@@H]2/C=C/[C@@H](O)CCCCCSc2ccccn2)n1 [Example 1, 2-[(2-{(2R)-2-[(1E,3S)-3-Hydroxy-8-(2-pyridinylthio)-1-octen-1-yl]-5-oxo-1-pyrrolidinyl}ethyl)thio]-1,3-thiazole-4-carboxylic acid] | – | – | – | – | 50 | – | –
4 | CN(CCCCC[C@H](O)/C=C/[C@H]1CCC(=O)N1CCSc1nc(C(=O)O)cs1)c1ccccc1 [Example 2, 2-({2-[(2R)-2-{(1E,3S)-3-Hydroxy-8-[methyl(phenyl)amino]-1-octen-1-yl}-5-oxo-1-pyrrolidinyl]ethyl}thio)-1,3-thiazole-4-carboxylic acid] | – | – | – | – | 50 | – | –
5 | O=C(O)CCCSCCN1C(=O)CC[C@@H]1/C=C/[C@@H](O)Cc1cccc(NC(=O)c2ccccc2)c1 [Example 10, 4-({2-[(2R)-2-{(1E,3S)-4-[3-(Benzoylamino)phenyl]-3-hydroxy-1-buten-1-yl}-5-oxo-1-pyrrolidinyl]ethyl}thio)butanoic acid] | – | – | – | – | – | – | 50
6 | O=C(NCCS(=O)(=O)O)c1csc(SCCN2C(=O)CC[C@@H]2/C=C/[C@@H](O)CCCCCSc2ccccn2)n1 [Example 11, 2-[({2-[(2-{(2R)-2-[(1E,3S)-3-Hydroxy-8-(2-pyridinylthio)-1-octen-1-yl]-5-oxo-1-pyrrolidinyl}ethyl)thio]-1,3-thiazol-4-yl}carbonyl)amino]ethanesulfonic acid] | 100 | 30 | 1 | 0.3 | 50 | – | –
7 | COc1nccnc1SCCCCC[C@H](O)/C=C/[C@H]1CCC(=O)N1CCSc1nc(C(=O)NCCS(=O)(=O)O)cs1 [Example 12] | 10 | 30 | 10 | 30 | – | 50 | –
